Reference: patent US20240158391A1, “DERIVATIVES OF 4-(IMIDAZO[1,2-A]PYRIDIN-3-YL)-N-(PYRIDIN-3-YL) PYRIMIDIN-2- AMINE FOR TREATING PROLIFERATIVE DISEASES AND CONDITIONS” (AUCENTRA THERAPEUTICS PTY LTD, priority 2019, published 2024)

What was measured:
CDK7/CyclinH/Mat1 = CDK7/CyclinH/Mat1 (Homo sapiens, UniProt P50613); test: ADP Glo kinase assay, CDK7/CyclinH/Mat1; format: biochemical; details: for Ki: Km ATP, read-out: Enzymatic inhibition, Ki, CDK7 H; for remaining activity at 1 µM: compound at 1 μM, read-out: Residual enzymatic activity (%) at 1 μM, CDK7 H
Procedure: (§1) Test compounds are used in 1:3 serial dilutions for 10 concentrations (from 10-0.0005 μM) in 0.5% DMSO. […] The kinase reactions are run for optimised time period at room temperature and then the reaction is stopped by adding 5 μL of ADP Glo reagent.

CDK9/CyclinT1 = CDK9/CyclinT1 (Homo sapiens, UniProt P50750); test: ADP Glo kinase assay, CDK9/CyclinT1; format: biochemical; details: for Ki: CDK9/CyclinT1, Km ATP, read-out: Enzymatic inhibition, Ki, CDK9 T1
Procedure: as §1

FLT3-ITD = biological target: T1, FLT3-ITD (Homo sapiens, UniProt P36888); test: ADP Glo kinase assay, FLT3-ITD; format: biochemical; details: Km ATP 100 μM, read-out: Enzymatic inhibition, Ki, FLT3-ITD
T1 sequence (P36888 1-993): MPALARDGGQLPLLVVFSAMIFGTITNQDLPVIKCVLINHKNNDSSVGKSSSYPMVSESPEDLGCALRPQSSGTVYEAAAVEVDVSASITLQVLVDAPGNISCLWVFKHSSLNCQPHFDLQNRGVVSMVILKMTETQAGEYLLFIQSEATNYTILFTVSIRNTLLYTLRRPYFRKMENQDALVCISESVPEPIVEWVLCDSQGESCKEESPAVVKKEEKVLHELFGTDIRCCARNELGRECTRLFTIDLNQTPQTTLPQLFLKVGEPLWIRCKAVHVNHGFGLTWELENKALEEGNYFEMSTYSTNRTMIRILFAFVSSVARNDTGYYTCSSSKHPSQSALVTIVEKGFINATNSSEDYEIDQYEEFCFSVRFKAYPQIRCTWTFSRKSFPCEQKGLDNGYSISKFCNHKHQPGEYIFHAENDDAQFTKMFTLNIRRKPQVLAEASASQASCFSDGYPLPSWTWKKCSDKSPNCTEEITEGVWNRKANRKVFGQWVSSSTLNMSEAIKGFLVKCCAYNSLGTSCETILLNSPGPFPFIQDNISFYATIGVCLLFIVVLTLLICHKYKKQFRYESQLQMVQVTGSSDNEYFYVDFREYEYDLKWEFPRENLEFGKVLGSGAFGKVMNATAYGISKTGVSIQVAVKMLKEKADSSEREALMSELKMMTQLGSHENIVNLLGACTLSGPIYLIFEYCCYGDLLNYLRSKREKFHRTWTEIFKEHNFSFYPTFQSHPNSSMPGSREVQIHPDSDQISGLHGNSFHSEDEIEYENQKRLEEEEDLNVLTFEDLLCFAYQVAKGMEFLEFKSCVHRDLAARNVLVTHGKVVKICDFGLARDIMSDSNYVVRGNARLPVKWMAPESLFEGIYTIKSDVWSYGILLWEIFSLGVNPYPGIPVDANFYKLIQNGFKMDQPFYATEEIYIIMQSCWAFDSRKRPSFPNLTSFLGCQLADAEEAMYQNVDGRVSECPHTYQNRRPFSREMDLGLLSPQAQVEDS
Procedure: as §1

MV-4-11 = test: Proliferation assay (resazurin, leukemia cell lines), MV-4-11; format: cell-based; details: Homo sapiens, MV4-11, read-out: 72 h Growth inhibition GI50, MV-4-11 cells
Text: The following compounds were used as comparators.

CDK6/CyclinD3 = CDK6/CyclinD3 (Homo sapiens, UniProt Q00534); test: ADP Glo kinase assay, CDK6/CyclinD3; format: biochemical; details: for Ki: Km ATP, read-out: Enzymatic inhibition, Ki, CDK6 D3; for remaining activity at 1 µM: compound at 1 μM, read-out: Residual enzymatic activity (%) at 1 μM, CDK6 D3
Procedure: as §1

CDK1/CyclinB = CDK1/CyclinB (Homo sapiens, UniProt P06493); test: ADP Glo kinase assay, CDK1/CyclinB; format: biochemical; details: for Ki: Km ATP, read-out: Enzymatic inhibition, Ki, CDK1 B; for remaining activity at 1 µM: compound at 1 μM, read-out: Residual enzymatic activity (%) at 1 μM, CDK1 B
Procedure: as §1

CDK4/CyclinD1 = CDK4/CyclinD1 (Homo sapiens, UniProt P11802); test: ADP Glo kinase assay, CDK4/CyclinD1; format: biochemical; details: for remaining activity at 1 µM: compound at 1 μM, read-out: Residual enzymatic activity (%) at 1 μM, CDK4 D1; for Ki: Km ATP, read-out: Enzymatic inhibition, Ki, CDK4 D1
Procedure: as §1

CDK2/CyclinA2 = CDK2/CyclinA2 (Homo sapiens, UniProt P24941); test: ADP Glo kinase assay, CDK2/CyclinA2; format: biochemical; details: for Ki: Km ATP, read-out: Enzymatic inhibition, Ki, CDK2 A; for remaining activity at 1 µM: compound at 1 μM, read-out: Residual enzymatic activity (%) at 1 μM, CDK2 A
Procedure: as §1

Chain of CDK4/CyclinD1 (P11802 whole entry, species assumed): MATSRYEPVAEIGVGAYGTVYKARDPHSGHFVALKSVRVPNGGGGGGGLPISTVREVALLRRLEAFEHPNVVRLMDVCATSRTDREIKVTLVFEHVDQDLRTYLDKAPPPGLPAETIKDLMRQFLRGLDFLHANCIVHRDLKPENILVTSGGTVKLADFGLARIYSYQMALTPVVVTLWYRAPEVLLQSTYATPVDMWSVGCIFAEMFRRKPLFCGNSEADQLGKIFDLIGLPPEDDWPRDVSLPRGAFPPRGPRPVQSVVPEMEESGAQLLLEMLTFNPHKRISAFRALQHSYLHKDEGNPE
Chain of CDK4/CyclinD1 (P24385 whole entry partner, species assumed): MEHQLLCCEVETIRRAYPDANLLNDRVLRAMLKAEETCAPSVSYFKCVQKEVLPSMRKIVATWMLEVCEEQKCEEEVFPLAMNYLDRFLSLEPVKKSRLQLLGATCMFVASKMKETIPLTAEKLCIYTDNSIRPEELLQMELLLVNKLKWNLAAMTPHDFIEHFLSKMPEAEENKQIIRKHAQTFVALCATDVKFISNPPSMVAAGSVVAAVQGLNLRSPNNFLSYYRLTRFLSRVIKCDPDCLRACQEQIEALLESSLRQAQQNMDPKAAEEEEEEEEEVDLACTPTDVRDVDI
Chain of CDK1/CyclinB (P06493 whole entry, species assumed): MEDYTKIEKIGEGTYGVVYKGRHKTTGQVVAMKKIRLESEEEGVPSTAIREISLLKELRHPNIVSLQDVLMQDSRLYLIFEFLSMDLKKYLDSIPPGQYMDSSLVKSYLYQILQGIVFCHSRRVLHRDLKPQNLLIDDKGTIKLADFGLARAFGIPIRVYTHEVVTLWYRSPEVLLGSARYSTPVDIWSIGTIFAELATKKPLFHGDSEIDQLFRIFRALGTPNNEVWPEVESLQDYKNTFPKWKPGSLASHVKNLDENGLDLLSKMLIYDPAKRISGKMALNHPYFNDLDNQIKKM
Chain of CDK1/CyclinB (P14635 whole entry partner, species assumed): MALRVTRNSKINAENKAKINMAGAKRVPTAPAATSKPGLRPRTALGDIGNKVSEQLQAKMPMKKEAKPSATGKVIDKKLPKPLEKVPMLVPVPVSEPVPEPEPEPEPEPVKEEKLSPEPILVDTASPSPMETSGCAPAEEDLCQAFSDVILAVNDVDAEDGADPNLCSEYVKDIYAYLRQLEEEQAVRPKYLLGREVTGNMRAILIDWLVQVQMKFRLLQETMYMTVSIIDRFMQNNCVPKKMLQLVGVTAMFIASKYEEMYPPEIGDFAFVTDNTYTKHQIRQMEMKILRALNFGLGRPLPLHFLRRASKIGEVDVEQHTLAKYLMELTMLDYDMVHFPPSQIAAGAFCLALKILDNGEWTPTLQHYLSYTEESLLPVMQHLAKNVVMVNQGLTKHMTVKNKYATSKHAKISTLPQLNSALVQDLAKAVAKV
Chain of CDK9/CyclinT1 (P50750 whole entry, species assumed): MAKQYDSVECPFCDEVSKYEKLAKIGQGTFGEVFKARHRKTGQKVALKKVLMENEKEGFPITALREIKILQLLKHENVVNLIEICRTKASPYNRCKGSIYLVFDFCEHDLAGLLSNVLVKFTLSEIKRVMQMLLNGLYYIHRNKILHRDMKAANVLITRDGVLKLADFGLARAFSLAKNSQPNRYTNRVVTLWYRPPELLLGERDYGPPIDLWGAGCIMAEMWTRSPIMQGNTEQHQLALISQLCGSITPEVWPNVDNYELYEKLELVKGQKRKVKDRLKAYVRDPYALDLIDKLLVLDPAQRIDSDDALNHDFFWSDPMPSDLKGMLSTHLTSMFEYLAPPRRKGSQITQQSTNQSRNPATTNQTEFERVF
Chain of CDK9/CyclinT1 (O60563 whole entry partner, species assumed): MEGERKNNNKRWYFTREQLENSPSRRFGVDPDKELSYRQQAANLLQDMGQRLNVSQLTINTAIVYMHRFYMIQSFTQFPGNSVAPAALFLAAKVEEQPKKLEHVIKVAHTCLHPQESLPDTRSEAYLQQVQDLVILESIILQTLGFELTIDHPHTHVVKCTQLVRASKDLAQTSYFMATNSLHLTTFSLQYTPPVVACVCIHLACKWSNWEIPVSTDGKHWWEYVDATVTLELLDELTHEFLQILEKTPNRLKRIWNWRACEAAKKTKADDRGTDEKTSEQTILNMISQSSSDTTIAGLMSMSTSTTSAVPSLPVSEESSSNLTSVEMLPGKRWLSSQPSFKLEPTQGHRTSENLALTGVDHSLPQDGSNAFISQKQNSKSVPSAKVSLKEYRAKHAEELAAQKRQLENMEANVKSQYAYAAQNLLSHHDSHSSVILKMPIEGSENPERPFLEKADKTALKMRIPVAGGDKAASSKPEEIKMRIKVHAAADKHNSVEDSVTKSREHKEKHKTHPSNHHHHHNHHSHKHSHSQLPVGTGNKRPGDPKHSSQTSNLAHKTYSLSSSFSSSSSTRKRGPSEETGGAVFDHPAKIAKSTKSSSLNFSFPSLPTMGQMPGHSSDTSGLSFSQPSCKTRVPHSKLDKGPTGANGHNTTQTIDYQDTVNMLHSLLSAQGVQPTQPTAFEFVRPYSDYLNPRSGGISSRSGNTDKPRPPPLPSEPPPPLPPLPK
Chain of CDK6/CyclinD3 (Q00534 whole entry, species assumed): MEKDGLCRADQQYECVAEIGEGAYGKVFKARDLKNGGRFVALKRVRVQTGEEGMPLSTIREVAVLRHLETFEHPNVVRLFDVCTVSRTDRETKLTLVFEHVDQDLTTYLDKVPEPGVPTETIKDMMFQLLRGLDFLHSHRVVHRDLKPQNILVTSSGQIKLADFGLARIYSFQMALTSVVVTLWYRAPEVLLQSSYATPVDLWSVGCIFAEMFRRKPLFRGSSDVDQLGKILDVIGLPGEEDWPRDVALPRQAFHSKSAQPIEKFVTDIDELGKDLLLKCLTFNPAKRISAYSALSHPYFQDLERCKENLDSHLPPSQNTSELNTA
Chain of CDK6/CyclinD3 (P30281 whole entry partner, species assumed): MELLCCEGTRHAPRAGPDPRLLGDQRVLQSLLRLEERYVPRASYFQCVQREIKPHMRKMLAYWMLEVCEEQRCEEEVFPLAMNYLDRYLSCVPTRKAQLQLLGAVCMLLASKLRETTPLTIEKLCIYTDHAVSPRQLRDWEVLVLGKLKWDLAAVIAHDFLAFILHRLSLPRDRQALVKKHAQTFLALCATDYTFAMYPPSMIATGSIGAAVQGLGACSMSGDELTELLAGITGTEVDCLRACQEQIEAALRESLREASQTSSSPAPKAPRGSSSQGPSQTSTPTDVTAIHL
Chain of CDK7/CyclinH/Mat1 (P50613 whole entry, species assumed): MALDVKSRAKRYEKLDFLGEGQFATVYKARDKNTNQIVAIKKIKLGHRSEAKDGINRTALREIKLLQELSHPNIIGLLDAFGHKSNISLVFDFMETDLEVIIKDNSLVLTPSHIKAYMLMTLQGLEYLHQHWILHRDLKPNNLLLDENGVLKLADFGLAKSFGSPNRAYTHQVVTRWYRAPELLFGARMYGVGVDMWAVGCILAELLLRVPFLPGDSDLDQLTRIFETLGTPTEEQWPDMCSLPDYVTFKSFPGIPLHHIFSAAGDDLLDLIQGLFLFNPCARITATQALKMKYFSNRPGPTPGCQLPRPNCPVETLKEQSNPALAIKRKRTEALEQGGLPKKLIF
Chain of CDK7/CyclinH/Mat1 (P51946 whole entry partner, species assumed): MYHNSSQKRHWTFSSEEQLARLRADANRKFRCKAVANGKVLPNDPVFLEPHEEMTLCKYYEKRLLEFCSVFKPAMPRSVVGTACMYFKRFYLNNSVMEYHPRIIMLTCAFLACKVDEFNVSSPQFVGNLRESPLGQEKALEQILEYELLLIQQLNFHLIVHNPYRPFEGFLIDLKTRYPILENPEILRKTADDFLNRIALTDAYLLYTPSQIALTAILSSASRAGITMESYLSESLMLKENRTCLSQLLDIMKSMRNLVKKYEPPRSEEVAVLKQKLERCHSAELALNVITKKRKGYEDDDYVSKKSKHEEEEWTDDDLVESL
Chain of CDK7/CyclinH/Mat1 (P51948 whole entry partner, species assumed): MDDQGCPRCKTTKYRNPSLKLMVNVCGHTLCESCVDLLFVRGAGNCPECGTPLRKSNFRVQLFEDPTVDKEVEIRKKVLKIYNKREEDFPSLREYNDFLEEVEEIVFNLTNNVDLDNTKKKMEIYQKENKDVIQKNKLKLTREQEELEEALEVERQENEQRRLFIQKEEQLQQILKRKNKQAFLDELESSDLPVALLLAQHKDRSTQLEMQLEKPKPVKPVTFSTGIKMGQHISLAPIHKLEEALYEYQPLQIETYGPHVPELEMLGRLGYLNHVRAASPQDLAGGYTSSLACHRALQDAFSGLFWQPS

SMILES	Ki (CDK7/CyclinH/Mat1) [nM]	Ki (CDK9/CyclinT1) [nM]	Ki (FLT3-ITD) [nM]	GI50 (MV-4-11) [nM]	Ki (CDK6/CyclinD3) [nM]	Ki (CDK1/CyclinB) [nM]	remaining activity at 1 µM (CDK4/CyclinD1) [%]	Ki (CDK2/CyclinA2) [nM]	Ki (CDK4/CyclinD1) [nM]	remaining activity at 1 µM (CDK6/CyclinD3) [%]	remaining activity at 1 µM (CDK1/CyclinB) [%]	remaining activity at 1 µM (CDK7/CyclinH/Mat1) [%]	remaining activity at 1 µM (CDK2/CyclinA2) [%]	inhibition of CDK9 (in words) (CDK9/CyclinT1; compared with comparator compounds A, B and C (N-(pyridin-2-yl)pyrimidin-2-amine moiety))
Fc1cnc(Nc2cccnc2)nc1-c1cnc2ccccn12 [Compound 4, 5-Fluoro-4-(imidazo[1,2-a]pyridin-3-yl)-N-(pyridin-3-yl)pyrimidin-2-amine]	2540	41	224	57	2900	2		1	74					
Cc1nc2ccc(F)cn2c1-c1ccnc(Nc2ccc(N3CCN(C)CC3)nc2)n1 [Compound 2, 4-(6-Fluoro-2-methylimidazo[1,2-a]pyridin-3-yl)-N-(6-(4-methylpiperazin-1-yl)pyridin-3-yl)pyrimidin-2-amine]	560	168	3	78	54	152		63	55					
Cc1ccc2ncc(-c3ccnc(Nc4ccc(N5CCN(C)CC5)nc4)n3)n2c1 [Compound 35, 4-(6-Methylimidazo[1,2-a]pyridin-3-yl)-N-(6-(4-methylpiperazin-1-yl)pyridin-3-yl)pyrimidin-2-amine]	84	4	16	4		48		15	34					
CN1CCN(c2ccc(Nc3nccc(-c4cnc5ccc(-c6cn[nH]c6)cn45)n3)cn2)CC1 [Compound 24, 4-(6-(1H-Pyrazol-4-yl)imidazo[1,2-a]pyridin-3-yl)-N-(6-(4-methylpiperazin-1-yl)pyridin-3-yl)pyrimidin-2-amine]		4	8	33		29	21	42						
CN1CCN(c2ccc(Nc3nccc(-c4cnc5ccc(-c6cnn(C(F)F)c6)cn45)n3)cn2)CC1 [Compound 70, 4-(6-(1-(Difluoromethyl)-1H-pyrazol-4-yl)imidazo[1,2-a]pyridin-3-yl)-N-(6-(4-methylpiperazin-1-yl)pyridin-3-yl)pyrimidin-2-amine]		7	12	8						57	32	40	55	
CS(=O)(=O)N1CCN(c2ccc(Nc3nccc(-c4cnc5ccc(Br)cn45)n3)cn2)CC1 [Compound 16, 4-(6-Bromoimidazo[1,2-a]pyridin-3-yl)-N-(6-(4-(methylsulfonyl)piperazin-1-yl)pyridin-3-yl)pyrimidin-2-amine]		77	7	10	2090	153		124	718					
CN1CCN(c2ccc(Nc3nccc(-c4cnc5ccc(-c6cnc(N)nc6)cn45)n3)cn2)CC1 [Compound 23, 4-(6-(2-Aminopyrimidin-5-yl)imidazo[1,2-a]pyridin-3-yl)-N-(6-(4-methylpiperazin-1-yl)pyridin-3-yl)pyrimidin-2-amine]		20	23	181			72			46	67		26	
CN1CCN(c2ccc(Nc3nccc(-c4cnc5ccc(-c6cccnc6)cn45)n3)nc2)CC1 [Comparator compound C, N-(5-(4-methylpiperazin-1-yl)pyridin-2-yl)-4-(6-(pyridin-3-yl)imidazo[1,2-a]pyridin-3-yl)pyrimidin-2-amine, reference compound]		140					76			87	67	75	94	
CC(C)N1CCN(c2ccc(Nc3nccc(-c4cnc5ccc(-c6cncnc6)cn45)n3)cn2)CC1 [Compound 53, N-(6-(4-Isopropylpiperazin-1-yl)pyridin-3-yl)-4-(6-(pyrimidin-5-yl)imidazo[1,2-a]pyridin-3-yl)pyrimidin-2-amine]		92	71	46						66	71	56	75	

Now from value to compound, other results behind:

Ki (CDK7/CyclinH/Mat1) [nM]	Ki (CDK9/CyclinT1) [nM]	Ki (FLT3-ITD) [nM]	GI50 (MV-4-11) [nM]	Ki (CDK6/CyclinD3) [nM]	Ki (CDK1/CyclinB) [nM]	remaining activity at 1 µM (CDK4/CyclinD1) [%]	Ki (CDK2/CyclinA2) [nM]	Ki (CDK4/CyclinD1) [nM]	remaining activity at 1 µM (CDK6/CyclinD3) [%]	remaining activity at 1 µM (CDK1/CyclinB) [%]	remaining activity at 1 µM (CDK7/CyclinH/Mat1) [%]	remaining activity at 1 µM (CDK2/CyclinA2) [%]	SMILES	inhibition of CDK9 (in words) (CDK9/CyclinT1; compared with comparator compounds A, B and C (N-(pyridin-2-yl)pyrimidin-2-amine moiety))
262	45	25	29	444	116	51	39						CC(=O)N1CCN(c2ccc(Nc3nccc(-c4cnc5ccc(-c6cn[nH]c6)cn45)n3)cn2)CC1 [Compound 47, 1-(4-(5-((4-(6-(1H-Pyrazol-4-yl)imidazo[1,2-a]pyridin-3-yl)pyrimidin-2-yl)amino)pyridin-2-yl)piperazin-1-yl)ethan-1-one]	
297	96	5	740			94	1080		44	100			c1ccc(-c2ccc3ncc(-c4ccnc(Nc5ccc(N6CCC6)nc5)n4)n3c2)cc1 [Compound 25, N-(6-(Azetidin-1-yl)pyridin-3-yl)-4-(6-phenylimidazo[1,2-a]pyridin-3-yl)pyrimidin-2-amine]	
	2	15	10		645		1030	> 500					CN1CCN(c2ccc(Nc3nccc(-c4cnc5ccc(-c6cnn(C)c6)cn45)n3)cn2)CC1 [Compound 9, 4-(6-(1-Methyl-1H-pyrazol-4-yl)imidazo[1,2-a]pyridin-3-yl)-N-(6-(4-methylpiperazin-1-yl)pyridin-3-yl)pyrimidin-2-amine]	dramatically and surprisingly increased the potency of inhibition of CDK9
	> 500		7			76			87	98	70	99	CN1CCN(c2ccc(Nc3nccc(-c4cnc5ccc(-c6cnn(C)c6)cn45)n3)nc2)CC1 [Comparator compound B, 4-(6-(1-methyl-1H-pyrazol-4-yl)imidazo[1,2-a]pyridin-3-yl)-N-(5-(4-methylpiperazin-1-yl)pyridin-2-yl)pyrimidin-2-amine, reference compound]	
	380	84	23						96	78	94	36	CS(=O)(=O)N1CCN(c2ccc(Nc3nccc(-c4cnc5ccc(-c6ccc(F)nc6)cn45)n3)cn2)CC1 [Compound 56, 4-(6-(6-Fluoropyridin-3-yl)imidazo[1,2-a]pyridin-3-yl)-N-(6-(4-(methylsulfonyl)piperazin-1-yl)pyridin-3-yl)pyrimidin-2-amine]	
	10	10	39	295	145		44	49					CC(C)N1CCN(c2ccc(Nc3nccc(-c4cnc5ccc(Br)cn45)n3)cn2)CC1 [Compound 38, 4-(6-Bromoimidazo[1,2-a]pyridin-3-yl)-N-(6-(4-isopropylpiperazin-1-yl)pyridin-3-yl)pyrimidin-2-amine]	
